Assay results from patent US9487749B2 (priority 2009, dated 2016).
“Also recorded” adds a separate entry of the source.

Assays:
Chlorella sorokiniana = experiment: Algal growth with MSM by percent transmittance; type: cell-based
Procedure: Two species of Chlorella were examined for growth—Chlorella sorokiniana a freshwater species and Chlorella minutissima a marine species. […] Growth was measured on day 0, 1, 2, 3, 4, 5, 6, 7, 8, 9 and 10. […] The following media were purchased from UTEX Culture Collection of Algae: Enriched Salt Water Medium and Volvox Dextrose Medium.
The algae were grown for 48 hours in the appropriate medium. The initial suspension was enumerated for each alga and is referred to as the starting inoculums. Chlorella sorokiniana was at 381 million cells per milliliter and Chlorella minutissima was at 19 million cells per milliliter. One milliliter of the algal solution was placed into 9 mLs of medium and mixed by vortexing. […] The tube of algae and MSM were incubated at room temperature with exposure to sunlight. […] Each dilution of MSM for each organism was set up in and analyzed in triplicate for each time interval measured. The samples were measured by percent transmittance on a UV/VIS spectrophotometer at wavelength 750 nm. The medium stock was tested for percent transmittance background levels at every time interval were measured. The lower percent transmittance indicated a higher growth factor.

E. coli = E. coli log growth in MSM-lactose broth with or without DMSO; type: cell-based, Escherichia coli
Procedure: Lactose broth, free of both NaCl and of proteins, was used as the media in this experiment. […] Each media composition was initially inoculated with 6.75×10^6 cfu/mL of E. coli. Cultures were incubated at 25° C. for seven days. Aliquots of each culture were taken after 24 hours of culturing and at the end of seven days in culture. Aliquots were serially diluted (with Modified Letheen diluent) and plated on trypto-soy agar plates.

Staphylococcus aureus = experiment: USP Antimicrobial Effectiveness Test (AET) of MSM supplemented TSB; type: cell-based; parameters: key to AET test results (microorganism count): Colonies too numerous to count (TNTC); details: for Log Reduction from Initial Microorganism Inoculum: 1:10 dilution of MSM, 14 Days, 28 Days; for AET test results (microorganism count): 48 hrs
Description: (§1) Compounds or formulated products having antimicrobial activity may be evaluated with the United States Pharmacopeia (USP) Antimicrobial Effectiveness Test (AET). The AET involves the addition of specified microorganisms (Candida albicans, Aspergillus niger, Escherichia coli, Pseudomonas aeruginosa and Staphylococcus aureus) directly to a test product at relatively high concentrations to simulate contamination. The product is held for one month, with weekly analysis of microorganism levels. […] For yeast and mold, no increase from the initial inoculums level is permitted. […] Inoculations were made using Candida albicans, Aspergillus niger, Escherichia coli, Pseudomonas aeruginosa and Staphylococcus aureus. Tryptic soy broth (TSB) was used as the culturing media. […] The inoculated media was held for one month, during which time the added microorganisms were enumerated weekly to determine if they were growing, dying off, or remaining near the initial inoculation level. […] The acceptance criteria for antimicrobial effectiveness are described in detail in the USP, herein incorporated by reference.

Aspergillus niger = experiment: as above; type: cell-based; parameters: key to AET test results (microorganism count): Colonies too numerous to count (TNTC); details: for Log Reduction from Initial Microorganism Inoculum: 1:10 dilution of MSM, 14 Days, 28 Days; for AET test results (microorganism count): 48 hrs
Description: as §1

[1] = system: ATCC strain 8739 Escherichia coli; experiment: Bromcresol Purple colour change with E. coli; type: cell-based
Procedure: Bromcresol Purple is an indicator dye that turns yellow in the presence of E. coli bacteria. […] All concentrations were plated out to 10^−7 dilutions to ascertain the log reduction.
Flake OptiMSM was weighed out using a certified Mettler Toledo AG245 balance SN: 1115210833 and aliquoted for each concentration. […] Tubes were cooled to room temperature which was approximately 20° C. All tubes were then spiked with the same dilution of Escherichia coli that gave a level of colony forming units at 6.0×10^6/mL (6.8). The tubes were then incubated at 25° C. Daily observation for color change was performed during the first seven days. The tubes were mixed periodically to ensure that the OptiMSM was well equilibrated at all times. A positive and negative control was ascertained.

## CS(C)(=O)=O [MSM, Methylsulfonylmethane]
Chlorella sorokiniana; MSM 0.5, day 0, 750 nm
  percent transmittance: 47.3%
Chlorella sorokiniana; MSM 0.5, day 1, 750 nm
  percent transmittance: 41.8%
Chlorella sorokiniana; MSM 0.5, day 2, 750 nm
  percent transmittance: 29.3%
Chlorella sorokiniana; MSM 0.5, day 3, 750 nm
  percent transmittance: 29.6%
Chlorella sorokiniana; MSM 0.5, day 4, 750 nm
  percent transmittance: 19.0%
Chlorella sorokiniana; MSM 0.5, day 5, 750 nm
  percent transmittance: 12.4%
Chlorella sorokiniana; MSM 0.5, day 6, 750 nm
  percent transmittance: 12.5%
Chlorella sorokiniana; MSM 0.5, day 7, 750 nm
  percent transmittance: 11.9%
Chlorella sorokiniana; MSM 0.5, day 8, 750 nm
  percent transmittance: 12.2%
Chlorella sorokiniana; MSM 0.5, day 9, 750 nm
  percent transmittance: 7.5%
Chlorella sorokiniana; MSM 0.5, day 10, 750 nm
  percent transmittance: 6.4%
Chlorella sorokiniana; MSM 1, day 0, 750 nm
  percent transmittance: 48.7%
Chlorella sorokiniana; MSM 1, day 1, 750 nm
  percent transmittance: 42.5%
Chlorella sorokiniana; MSM 1, day 2, 750 nm
  percent transmittance: 37.5%
Chlorella sorokiniana; MSM 1, day 3, 750 nm
  percent transmittance: 37.5%
Chlorella sorokiniana; MSM 1, day 4, 750 nm
  percent transmittance: 17.3%
Chlorella sorokiniana; MSM 1, day 5, 750 nm
  percent transmittance: 13.5%
Chlorella sorokiniana; MSM 1, day 6, 750 nm
  percent transmittance: 13.0%
Chlorella sorokiniana; MSM 1, day 7, 750 nm
  percent transmittance: 12.5%
Chlorella sorokiniana; MSM 1, day 8, 750 nm
  percent transmittance: 12.4%
Chlorella sorokiniana; MSM 1, day 9, 750 nm
  percent transmittance: 7.8%
Chlorella sorokiniana; MSM 1, day 10, 750 nm
  percent transmittance: 6.6%
Chlorella sorokiniana; MSM 2.5, day 0, 750 nm
  percent transmittance: 40.6%
Chlorella sorokiniana; MSM 2.5, day 1, 750 nm
  percent transmittance: 43.1%
Chlorella sorokiniana; MSM 2.5, day 2, 750 nm
  percent transmittance: 44.9%
Chlorella sorokiniana; MSM 2.5, day 3, 750 nm
  percent transmittance: 43.8%
Chlorella sorokiniana; MSM 2.5, day 4, 750 nm
  percent transmittance: 26.1%
Chlorella sorokiniana; MSM 2.5, day 5, 750 nm
  percent transmittance: 10.3%
Chlorella sorokiniana; MSM 2.5, day 6, 750 nm
  percent transmittance: 10.9%
Chlorella sorokiniana; MSM 2.5, day 7, 750 nm
  percent transmittance: 11.0%
Chlorella sorokiniana; MSM 2.5, day 8, 750 nm
  percent transmittance: 11.2%
Chlorella sorokiniana; MSM 2.5, day 9, 750 nm
  percent transmittance: 8.4%
Chlorella sorokiniana; MSM 2.5, day 10, 750 nm
  percent transmittance: 6.0%
Chlorella sorokiniana; MSM 5, day 0, 750 nm
  percent transmittance: 35.6%
Chlorella sorokiniana; MSM 5, day 1, 750 nm
  percent transmittance: 31.2%
Chlorella sorokiniana; MSM 5, day 2, 750 nm
  percent transmittance: 27.4%
Chlorella sorokiniana; MSM 5, day 3, 750 nm
  percent transmittance: 21.4%
Chlorella sorokiniana; MSM 5, day 4, 750 nm
  percent transmittance: 18.2%
Chlorella sorokiniana; MSM 5, day 5, 750 nm
  percent transmittance: 15.7%
Chlorella sorokiniana; MSM 5, day 6, 750 nm
  percent transmittance: 15.9%
Chlorella sorokiniana; MSM 5, day 7, 750 nm
  percent transmittance: 16.3%
Chlorella sorokiniana; MSM 5, day 8, 750 nm
  percent transmittance: 17.0%
Chlorella sorokiniana; MSM 5, day 9, 750 nm
  percent transmittance: 13.7%
Chlorella sorokiniana; MSM 5, day 10, 750 nm
  percent transmittance: 12.8%
Chlorella sorokiniana; MSM 10, day 0, 750 nm
  percent transmittance: 31.2%
Chlorella sorokiniana; MSM 10, day 1, 750 nm
  percent transmittance: 31.3%
Chlorella sorokiniana; MSM 10, day 2, 750 nm
  percent transmittance: 29.7%
Chlorella sorokiniana; MSM 10, day 3, 750 nm
  percent transmittance: 28.4%
Chlorella sorokiniana; MSM 10, day 4, 750 nm
  percent transmittance: 29.0%
Chlorella sorokiniana; MSM 10, day 5, 750 nm
  percent transmittance: 28.7%
Chlorella sorokiniana; MSM 10, day 6, 750 nm
  percent transmittance: 27.1%
Chlorella sorokiniana; MSM 10, day 7, 750 nm
  percent transmittance: 27.6%
Chlorella sorokiniana; MSM 10, day 8, 750 nm
  percent transmittance: 27.1%
Chlorella sorokiniana; MSM 10, day 9, 750 nm
  percent transmittance: 76.4%
Chlorella sorokiniana; MSM 10, day 10, 750 nm
  percent transmittance: 93.8%
Chlorella sorokiniana; MSM 20, day 0, 750 nm
  percent transmittance: 19.3%
Chlorella sorokiniana; MSM 20, day 1, 750 nm
  percent transmittance: 21.9%
Chlorella sorokiniana; MSM 20, day 2, 750 nm
  percent transmittance: 24.1%
Chlorella sorokiniana; MSM 20, day 3, 750 nm
  percent transmittance: 28.1%
Chlorella sorokiniana; MSM 20, day 4, 750 nm
  percent transmittance: 31.4%
Chlorella sorokiniana; MSM 20, day 5, 750 nm
  percent transmittance: 33.6%
Chlorella sorokiniana; MSM 20, day 6, 750 nm
  percent transmittance: 36.8%
Chlorella sorokiniana; MSM 20, day 7, 750 nm
  percent transmittance: 40.6%
Chlorella sorokiniana; MSM 20, day 8, 750 nm
  percent transmittance: 40.8%
Chlorella sorokiniana; MSM 20, day 9, 750 nm
  percent transmittance: 84.8%
Chlorella sorokiniana; MSM 20, day 10, 750 nm
  percent transmittance: 96.7%
E. coli; 11% MSM, 24 hours (maximum)
  reduction of bacterial growth: about 2.2 logs
E. coli; 16% MSM, 24 hours
  reduction of bacterial growth: about 1 log
Staphylococcus aureus; after 14 days
  Log Reduction from Initial Microorganism Inoculum: 4.5 log
Staphylococcus aureus; after 28 days
  Log Reduction from Initial Microorganism Inoculum: 4.7 log
Staphylococcus aureus; 1:100 dilution of MSM in TSB
  AET test results (microorganism count): TNTC
Staphylococcus aureus; 1:1000 dilution of MSM in TSB
  AET test results (microorganism count): TNTC
Aspergillus niger; after 14 days
  Log Reduction from Initial Microorganism Inoculum: 4.3 log
Aspergillus niger; after 28 days
  Log Reduction from Initial Microorganism Inoculum: 4.5 log
Aspergillus niger; 1:100 dilution of MSM in TSB
  AET test results (microorganism count): TNTC*
Aspergillus niger; 1:1000 dilution of MSM in TSB
  AET test results (microorganism count): TNTC*
[1]; 5-7% MSM, Day one
  Bromcresol Purple colour of the broth: color change of the broth to yellow
[1]; 8% MSM, listed as order: Day one, Day three
  Bromcresol Purple colour of the broth: slight clearing of color; also recorded: turning to the typical yellow color
[1]; 9% MSM, Day 7
  Bromcresol Purple colour of the broth: turning to a yellow color
[1]; 10%-16% MSM, listed as order: Day 7, Day 30
  Bromcresol Purple colour of the broth: No color change; also recorded: no signs of change
